Results reported in the NIST ThermoML archive (doi:10.1021/je400178k).
± gives the expanded uncertainty stated by the source.

Test: molar heat capacity at constant pressure
Conditions: 101 kPa, Liquid, Small sample (50 mg) DSC

molar heat capacity at constant pressure (298.15 K) [J/K/mol] | molar heat capacity at constant pressure (303.15 K) [J/K/mol] | molar heat capacity at constant pressure (308.15 K) [J/K/mol] | molar heat capacity at constant pressure (313.15 K) [J/K/mol] | molar heat capacity at constant pressure (318.15 K) [J/K/mol] | molar heat capacity at constant pressure (323.15 K) [J/K/mol] | molar heat capacity at constant pressure (328.15 K) [J/K/mol] | molar heat capacity at constant pressure (333.15 K) [J/K/mol] | molar heat capacity at constant pressure (338.15 K) [J/K/mol] | molar heat capacity at constant pressure (343.15 K) [J/K/mol] | molar heat capacity at constant pressure (348.15 K) [J/K/mol] | molar heat capacity at constant pressure (353.15 K) [J/K/mol] | Structure (SMILES)
285 ± 4.5 | 289.9 ± 4.6 | 292.9 ± 4.6 | 296 ± 4.6 | 298.9 ± 4.7 | 301.7 ± 4.7 | 305 ± 4.8 | 308.1 ± 4.8 | 311 ± 4.8 | 313.9 ± 4.9 | 316.5 ± 4.9 | 319 ± 4.9 | OCCN1CCNCC1 [N-(2-hydroxyethyl)piperazine]
213.9 ± 3.6 | 214.4 ± 3.6 | 215 ± 3.6 | 215.7 ± 3.6 | 216.4 ± 3.7 | 216.9 ± 3.7 | 217.3 ± 3.7 | 217.2 ± 3.7 | 215.5 ± 3.6 | 216.2 ± 3.7 | 217.6 ± 3.7 | 218 ± 3.7 | CN1CCNCC1 [N-methylpiperazine]
216.5 ± 3.7 | 221.7 ± 3.7 | 222.1 ± 3.7 | 223.4 ± 3.7 | 224.6 ± 3.8 | 225.3 ± 3.8 | 225.7 ± 3.8 | 227.5 ± 3.8 | 228.5 ± 3.8 | 229.6 ± 3.8 | 231.7 ± 3.8 | 235.9 ± 3.9 | CN1CCN(C)CC1 [1,4-dimethylpiperazine]
296.2 ± 4.6 | 298.2 ± 4.7 | 299.6 ± 4.7 | 301.2 ± 4.7 | 302.8 ± 4.7 | 304.5 ± 4.7 | 306.1 ± 4.8 | 307.9 ± 4.8 | 309.6 ± 4.8 | 311.3 ± 4.8 | 312.7 ± 4.9 | 313.4 ± 4.9 | NCCCN1CCOCC1 [N-(3-aminopropyl)morpholine]
263.9 ± 4.2 | 265.3 ± 4.3 | 267.1 ± 4.3 | 269.2 ± 4.3 | 270.8 ± 4.3 | 272.6 ± 4.3 | 274.3 ± 4.4 | 276.2 ± 4.4 | 278.7 ± 4.4 | 281 ± 4.4 | 283.2 ± 4.5 | 284.9 ± 4.5 | OCCN1CCOCC1 [4-morpholineethanol]
